Data taken from patent EP2193713A1, “Method for fighting animal pests without damaging pollinating insects” (Bayer CropScience AG, priority 2008, dated 2010).
Read-outs that look alike come from different tables or passages of the source.

Experiments:
Assay type in all cases: in vivo
Apis mellifera [1] = conditions: for Zahl toter Arbeiterbienen: 50 g a.s./ha
Text: (§1) Der Test wurde gemäß EPPO (European Plant Protection Organisation) Leitlinie 170 wie folgt durchgeführt:
(§2) Die Mortalität von Arbeiterbienen vor dem Bienenstock wird mittels einer Falle für tote Bienen (dead bee trap) bestimmt. Die Falle besteht aus Maschendraht und ist vor dem Bienenstock angebracht. Einzelne, lebende Bienen können die Maschen des Drahts passieren, der Transport toter Bienen durch die Maschen ist nicht möglich, weswegen tote Bienen sich in der Falle ansammeln. Tabelle 1 (siehe auch Figur 1)

Apis mellifera [2] = test: Tunnel test / spray application / bees: acute mortality of pupae in front of the hive; conditions: 50 g a.s./ha
Text: as §1
Tabelle 2 (siehe auch Figur 2)

Apis mellifera [3] = test: Tunnel test / spray application / bees: foraging activity; conditions: for Aktivität der Nahrungssuche, Zahl der Bienen / min / m^2: 50 g a.s./ha
Text: as §1
Während einer Minute werden in einem abgegrenzten Bereich von 2 x 1 m^2 die Bienen gezählt, die auf Blüten absitzen. Tabelle 3 (siehe auch Figur 3)

Apis mellifera [4] = test: Tunnel test / spray application / bees: brood development (share of comb cells); conditions: 50 g a.s./ha
Text: as §1
Über alle Waben eines Bienenstocks wird der jeweilige Anteil an Zellen bestimmt, der durch Pollen, Nektar, Eier, Larven oder Puppen belegt ist bzw. leer ist. […]

Apis mellifera [5] = conditions: for Zahl toter Arbeiterbienen: 10 mg a.s./pl.
Text: as §2

Apis mellifera [6] = test: Tent test / drench application / bees: foraging activity; conditions: for Aktivität der Nahrungssuche, Zahl der Bienen / min / 4 m^2: 10 mg a.s./pl.
Text: Der Test wurde wie folgt durchgeführt:

Apis mellifera [7] = test: Greenhouse test / residue test / bees: mortality after contact with treated tomato leaves; conditions: 50 g a.s./ha
Text: Der Versuch wurde wie folgt durchgeführt:
Die Tomatenpflanzen wurden im Gewächshaus mit den Testverbindungen bzw. der Referenzsubstanz behandelt (Spritzappliaktion, 3 fache Wiederholung). 1, 3, 6 und 13 Tage nach Behandlung (DAA) wurden Blätter entnommen (je 5 Blattproben pro Behandlung) und in Boxen gegeben. In jede Box wurden 10 Bienen transferiert und die Boxen wurden unter kontrollierten Bedingungen aufbewahrt, wobei die Bienen mit Zuckerlösung gefüttert wurden. 24, 48 und 72 nach Transfer der Bienen wurde deren Mortalität bestimmt. Tabelle 9 (siehe auch Figur 9)

[8] = result in words, 27 Tage nach Applikation

SMILES: CN1COCN(Cc2cnc(Cl)s2)/C1=N\[N+](=O)[O-] [Thiamethoxam, reference compound]
- Zahl toter Arbeiterbienen (Apis mellifera [1]; 0 DAA b (15:15 Uhr)): 420
- Zahl toter Arbeiterbienen (Apis mellifera [1]; 0 DAA c (17:15 Uhr)): 45,3
- Zahl toter Arbeiterbienen (Apis mellifera [1]; 1 DAA): 152,8
- Zahl toter Arbeiterbienen (Apis mellifera [1]; 2 DAA): 229,4
- Zahl toter Arbeiterbienen (Apis mellifera [1]; 3 DAA): 50,2
- Zahl toter Arbeiterbienen (Apis mellifera [1]; 4 DAA): 891,6
- Zahl toter Arbeiterbienen (Apis mellifera [1]; 5 DAA): 2,4
- Zahl toter Arbeiterbienen (Apis mellifera [1]; 6 DAA): 9
- Zahl toter Arbeiterbienen (Apis mellifera [1]; 11 DAA): 16,5
- Zahl toter Arbeiterbienen (Apis mellifera [1]; -3 DAA (before application)): 1,6
- Mortalität von Arbeiterbienen vor dem Bienenstock (Apis mellifera [1]; result in words, tunnel test, spray, I-5 75 und 150 g a.s./ha, Thiamethoxam 50 g a.s./ha): ausgeprägte Mortalität
- Zahl toter Puppen (Apis mellifera [2]; 0 DAA c (17:15 Uhr)): 0
- Zahl toter Puppen (Apis mellifera [2]; 1 DAA): 0
- Zahl toter Puppen (Apis mellifera [2]; 2 DAA): 0,1
- Zahl toter Puppen (Apis mellifera [2]; 5 DAA): 0,5
- Zahl toter Puppen (Apis mellifera [2]; 6 DAA): 0
- Zahl toter Puppen (Apis mellifera [2]; 11 DAA): 0
- Zahl toter Puppen (Apis mellifera [2]; 14 DAA): 0,4
- Zahl toter Puppen (Apis mellifera [2]; 18 DAA): 0
- Zahl toter Puppen (Apis mellifera [2]; 21 DAA): 0
- Zahl toter Puppen (Apis mellifera [2]; 25 DAA): 0,2
- Zahl toter Puppen (Apis mellifera [2]; -3 DAA (before application)): 0
- Aktivität der Nahrungssuche, Zahl der Bienen / min / m^2 (Apis mellifera [3]; 0 DAA a (09:30 Uhr)): 26,8 Bienen / min / m^2
- Aktivität der Nahrungssuche, Zahl der Bienen / min / m^2 (Apis mellifera [3]; 0 DAA c (14:15 Uhr)): 0,9 Bienen / min / m^2
- Aktivität der Nahrungssuche, Zahl der Bienen / min / m^2 (Apis mellifera [3]; 0 DAA e (17:15 Uhr)): 0,4 Bienen / min / m^2
- Aktivität der Nahrungssuche, Zahl der Bienen / min / m^2 (Apis mellifera [3]; 1 DAA b (15:30 Uhr)): 0 Bienen / min / m^2
- Aktivität der Nahrungssuche, Zahl der Bienen / min / m^2 (Apis mellifera [3]; 2 DAA): 1,5 Bienen / min / m^2
- Aktivität der Nahrungssuche, Zahl der Bienen / min / m^2 (Apis mellifera [3]; 3 DAA): 1,6 Bienen / min / m^2
- Aktivität der Nahrungssuche, Zahl der Bienen / min / m^2 (Apis mellifera [3]; 6 DAA): 5,4 Bienen / min / m^2
- Aktivität der Nahrungssuche, Zahl der Bienen / min / m^2 (Apis mellifera [3]; -1 DAA (before application)): 26,1 Bienen / min / m^2
- Aktivität der Nahrungssuche, Zahl der Bienen / min / m^2 (Apis mellifera [3]; -2 DAA (before application)): 35,2 Bienen / min / m^2
- Aktivität der Nahrungssuche, Zahl der Bienen / min / m^2 (Apis mellifera [3]; -3 DAA (before application)): 24,5 Bienen / min / m^2
- Aktivität der Nahrungssuche (Apis mellifera [3]; result in words, tunnel test, spray, I-5 75 und 150 g a.s./ha, Thiamethoxam 50 g a.s./ha directly after application): fast vollständige Einstellung der Aktivität der Nahrungssuche
- Anteil an Zellen: Eier (Apis mellifera [4]; 1 Tag vor Applikation): 17,5%
- Anteil an Zellen: Larven (Apis mellifera [4]; 1 Tag vor Applikation): 9%
- Anteil an Zellen: Leer (Apis mellifera [4]; 1 Tag vor Applikation): 30%
- Anteil an Zellen: Nektar (Apis mellifera [4]; 1 Tag vor Applikation): 12%
- Anteil an Zellen: Pollen (Apis mellifera [4]; 1 Tag vor Applikation): 2,4%
- Anteil an Zellen: Puppen (Apis mellifera [4]; 1 Tag vor Applikation): 29,1%
- Anteil an Zellen: Eier (Apis mellifera [4]; 6 Tage nach Applikation): 11,4%
- Anteil an Zellen: Larven (Apis mellifera [4]; 6 Tage nach Applikation): 6,3%
- Anteil an Zellen: Leer (Apis mellifera [4]; 6 Tage nach Applikation): 30,9%
- Anteil an Zellen: Nektar (Apis mellifera [4]; 6 Tage nach Applikation): 19,4%
- Anteil an Zellen: Pollen (Apis mellifera [4]; 6 Tage nach Applikation): 3,3%
- Anteil an Zellen: Puppen (Apis mellifera [4]; 6 Tage nach Applikation): 28,7%
- Anteil an Zellen: Eier (Apis mellifera [4]; 14 Tage nach Applikation): 19,4%
- Anteil an Zellen: Larven (Apis mellifera [4]; 14 Tage nach Applikation): 7,4%
- Anteil an Zellen: Leer (Apis mellifera [4]; 14 Tage nach Applikation): 51,8%
- Anteil an Zellen: Nektar (Apis mellifera [4]; 14 Tage nach Applikation): 9,2%
- Anteil an Zellen: Pollen (Apis mellifera [4]; 14 Tage nach Applikation): 1,5%
- Anteil an Zellen: Puppen (Apis mellifera [4]; 14 Tage nach Applikation): 10,7%
- Anteil an Zellen: Eier (Apis mellifera [4]; 27 Tage nach Applikation): 6,1%
- Anteil an Zellen: Larven (Apis mellifera [4]; 27 Tage nach Applikation): 2%
- Anteil an Zellen: Leer (Apis mellifera [4]; 27 Tage nach Applikation): 52%
- Anteil an Zellen: Nektar (Apis mellifera [4]; 27 Tage nach Applikation): 15,5%
- Anteil an Zellen: Pollen (Apis mellifera [4]; 27 Tage nach Applikation): 5,1%
- Anteil an Zellen: Puppen (Apis mellifera [4]; 27 Tage nach Applikation): 19,2%
- Zahl der Larven (Apis mellifera [4]; [8]): starke Abnahme
- leere Wabenzellen (Apis mellifera [4]; [8]): Verdoppelung
- Zahl toter Arbeiterbienen (Apis mellifera [5]; 6 DAA a (9:30 Uhr)): 143
- Zahl toter Arbeiterbienen (Apis mellifera [5]; 6 DAA b (14:30 Uhr)): 35
- Zahl toter Arbeiterbienen (Apis mellifera [5]; 7 DAA): 394
- Zahl toter Arbeiterbienen (Apis mellifera [5]; 8 DAA): 143
- Zahl toter Arbeiterbienen (Apis mellifera [5]; 9 DAA): 78
- Zahl toter Arbeiterbienen (Apis mellifera [5]; 10 DAA): 295
- Zahl toter Arbeiterbienen (Apis mellifera [5]; 11 DAA): 110
- Zahl toter Arbeiterbienen (Apis mellifera [5]; 14 DAA): 40
- Zahl toter Arbeiterbienen (Apis mellifera [5]; 16 DAA): 74
- Zahl toter Arbeiterbienen (Apis mellifera [5]; 18 DAA): 29
- Mortalität von Arbeiterbienen vor dem Bienenstock (Apis mellifera [5]; result in words, tent test, drench, I-5 20 mg a.s. / Pflanze, Thiamethoxam 10 mg a.s. / Pflanze): ausgeprägte Mortalität
- Aktivität der Nahrungssuche, Zahl der Bienen / min / 4 m^2 (Apis mellifera [6]; 5 DAA): 28 Bienen / min / 4 m^2
- Aktivität der Nahrungssuche, Zahl der Bienen / min / 4 m^2 (Apis mellifera [6]; 6 DAA b (14:30 Uhr)): 70 Bienen / min / 4 m^2
- Aktivität der Nahrungssuche, Zahl der Bienen / min / 4 m^2 (Apis mellifera [6]; 7 DAA): 23 Bienen / min / 4 m^2
- Aktivität der Nahrungssuche, Zahl der Bienen / min / 4 m^2 (Apis mellifera [6]; 8 DAA): 25 Bienen / min / 4 m^2
- Aktivität der Nahrungssuche, Zahl der Bienen / min / 4 m^2 (Apis mellifera [6]; 9 DAA): 19 Bienen / min / 4 m^2
- Aktivität der Nahrungssuche, Zahl der Bienen / min / 4 m^2 (Apis mellifera [6]; 11 DAA): 16 Bienen / min / 4 m^2
- Aktivität der Nahrungssuche, Zahl der Bienen / min / 4 m^2 (Apis mellifera [6]; 13 DAA): 14 Bienen / min / 4 m^2
- Aktivität der Nahrungssuche, Zahl der Bienen / min / 4 m^2 (Apis mellifera [6]; 15 DAA): 8 Bienen / min / 4 m^2
- Aktivität der Nahrungssuche, Zahl der Bienen / min / 4 m^2 (Apis mellifera [6]; 16 DAA): 15 Bienen / min / 4 m^2
- Aktivität der Nahrungssuche, Zahl der Bienen / min / 4 m^2 (Apis mellifera [6]; 17 DAA): 13 Bienen / min / 4 m^2
- Aktivität der Nahrungssuche, Zahl der Bienen / min / 4 m^2 (Apis mellifera [6]; 18 DAA): 6 Bienen / min / 4 m^2
- Aktivität der Nahrungssuche (Apis mellifera [6]; result in words, tent test, drench, I-5 20 mg a.s. / Pflanze, Thiamethoxam 10 mg a.s. / Pflanze (13 Tage nach Applikation)): fast vollständige Einstellung der Aktivität der Nahrungssuche
- Mortalität (Apis mellifera [7]; leaves taken 1 Tag nach Behandlung, 24 h contact): 100%
- Mortalität (Apis mellifera [7]; leaves taken 1 Tag nach Behandlung, 48 h contact): 100%
- Mortalität (Apis mellifera [7]; leaves taken 1 Tag nach Behandlung, 72 h contact): 100%
- Mortalität (Apis mellifera [7]; leaves taken 3 Tage nach Behandlung, 24 h contact): 100%
- Mortalität (Apis mellifera [7]; leaves taken 3 Tage nach Behandlung, 48 h contact): 100%
- Mortalität (Apis mellifera [7]; leaves taken 3 Tage nach Behandlung, 72 h contact): 100%
- Mortalität (Apis mellifera [7]; leaves taken 6 Tage nach Behandlung, 24 h contact): 100%
- Mortalität (Apis mellifera [7]; leaves taken 6 Tage nach Behandlung, 48 h contact): 100%
- Mortalität (Apis mellifera [7]; leaves taken 6 Tage nach Behandlung, 72 h contact): 100%
- Mortalität (Apis mellifera [7]; leaves taken 13 Tage nach Behandlung, 24 h contact): 93,3%
- Mortalität (Apis mellifera [7]; leaves taken 13 Tage nach Behandlung, 48 h contact): 93%
- Mortalität (Apis mellifera [7]; leaves taken 13 Tage nach Behandlung, 72 h contact): 93,3%
